Reference: patent publication US11076595B2, “1-(n,n-disubstituted carbamoyl) 4-(substituted sulfonyl)triazolin-5-one derivative, 4-(n,n-disubstituted carbamoyl) 1-(substituted sulfonyl)triazolin-5-one derivative, and herbicide containing said derivative as active ingredient” (HOKKO CHEMICAL INDUSTRY CO., LTD., priority 2017, dated 2021)

How the values were obtained:
Assay type in all cases: in vivo
Monochoria vaginalis [1] = assay: Test Example 2: herbicidal effect test by treatment during growing period in paddy field; conditions: treatment 7 days after sowing, 120 g/10a, evaluated 14 days after treatment
How it was run: (§1)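 Paddy soil in flooded pots (~3 cm water), 30 seeds per species sown 0–1 cm deep, greenhouse. Emulsifiable concentrate diluted in water and dripped into the water 7 days after sowing at 120 g a.i. per 10 are. Suppression (%) from dry weight vs untreated, 14 days post-treatment, two replicates.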

Lindernia pyxidaria [2] = assay: as above; conditions: treatment 7 days after sowing, 120 g/10a, evaluated 14 days after treatment
How it was run: as §1

Echinochloa crus-galli [3] = assay: as above; conditions: treatment 7 days after sowing, 120 g/10a, evaluated 14 days after treatment
How it was run: as §1

Scirpus juncoides [4] = assay: as above; conditions: treatment 7 days after sowing, 120 g/10a, evaluated 14 days after treatment
How it was run: as §1

crabgrass [5] = assay: Test Example 4: herbicidal effect test by foliage treatment in upland field; conditions: upland field foliage treatment 7 days after sowing; 120 g/10a; evaluated 14 days after treatment
How it was run: (§2)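 In this upland pot test, each species is sown at 20 seeds per pot. Spraying follows one week later at a dose of 120 g active ingredient per 10 are. Weed suppression, calculated from average dry weights, is determined 14 days afterward.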

Amaranthus viridis [6] = assay: as above; conditions: upland field foliage treatment 7 days after sowing; 120 g/10a; evaluated 14 days after treatment
How it was run: as §2

Echinochloa crus-galli [7] = assay: as above; conditions: upland field foliage treatment 7 days after sowing; 120 g/10a; evaluated 14 days after treatment
How it was run: as §2

Chenopodium album [8] = assay: as above; conditions: upland field foliage treatment 7 days after sowing; 120 g/10a; evaluated 14 days after treatment
How it was run: as §2

crabgrass [9] = assay: Test Example 3: herbicidal effect test by soil treatment in upland field; conditions: upland field soil treatment 1 day after sowing; 120 g/10a; evaluated 14 days after treatment
Protocol: (§3) This test was performed with two replications per one formulation concentration plot, and 14 days after the formulation treatments, the weed suppression rate (%) was determined according to the following equation (Math. 1). Weed suppression rate (%)=(1−an average dry weight (g) of plants in treated plots/an average dry weight (g) of plants in untreated plots)×100 [Math. 1]
(§4) A pot having a size of 36 cm^2 was filled with field soil (alluvial soil) and after uniformly mixing the soil of the surface layer of 1 cm with 20 grains of each weed seed of crabgrass, Echinochloa crus-galli, Chenopodium album and Amaranthus viridis, the surface layer was pressed lightly. One day after the sowing, an emulsifiable concentrate prepared according to Formulation Example 5 by using the compound shown in Table 7 below was diluted with water, and the water-diluted formulation was sprayed on the soil surface at a ratio of 100 liter per 10 are. The application rate of the active ingredient, by conversion, corresponded to 120 g per 10 are. Fourteen days after the formulation treatment, the herbicidal effect was evaluated by the same criteria as in Test Example 1.

Amaranthus viridis [10] = assay: as above; conditions: upland field soil treatment 1 day after sowing; 120 g/10a; evaluated 14 days after treatment
Protocol: as §3, §4

Echinochloa crus-galli [11] = assay: as above; conditions: upland field soil treatment 1 day after sowing; 120 g/10a; evaluated 14 days after treatment
Protocol: as §3, §4

Chenopodium album [12] = assay: as above; conditions: upland field soil treatment 1 day after sowing; 120 g/10a; evaluated 14 days after treatment
Protocol: as §3, §4

Monochoria vaginalis [13] = assay: Test Example 1: herbicidal effect test by soil treatment in paddy field; conditions: 120 g/10a, paddy soil treatment just after sowing, 14 days after treatment
How it was run: (§5)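 In a greenhouse, puddled paddy soil in Wagner pots held ~3 cm flooding over freshly sown seeds. Treatment was dropwise application of the diluted formulation, 120 g a.i. per 10 are, with two replications; suppression was scored from dry weights after 14 days.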

Lindernia pyxidaria [14] = assay: as above; conditions: 120 g/10a, paddy soil treatment just after sowing, 14 days after treatment
How it was run: as §5

Echinochloa crus-galli [15] = assay: as above; conditions: 120 g/10a, paddy soil treatment just after sowing, 14 days after treatment
How it was run: as §5

Scirpus juncoides [16] = assay: as above; conditions: 120 g/10a, paddy soil treatment just after sowing, 14 days after treatment
How it was run: as §5

| SMILES | weed suppression rate, Monochoria vaginalis (Monochoria vaginalis [1]) [%] | weed suppression rate, Lindemia pyxidaria (Lindernia pyxidaria [2]) [%] | weed suppression rate, Echinochloa crus-galli (Echinochloa crus-galli [3]) [%] | weed suppression rate, Scirpus juncoides (Scirpus juncoides [4]) [%] | herbicidal effect (weed suppression rate), Crabgrass (crabgrass [5]) [%] | herbicidal effect (weed suppression rate), Amaranthus viridis (Amaranthus viridis [6]) [%] | herbicidal effect (weed suppression rate), Echinochloa crus-galli (Echinochloa crus-galli [7]) [%] | herbicidal effect (weed suppression rate), Chenopodium album (Chenopodium album [8]) [%] | herbicidal effect (weed suppression rate), Crabgrass (crabgrass [9]) [%] | herbicidal effect (weed suppression rate), Amaranthus viridis (Amaranthus viridis [10]) [%] | herbicidal effect (weed suppression rate), Echinochloa crus-galli (Echinochloa crus-galli [11]) [%] | herbicidal effect (weed suppression rate), Chenopodium album (Chenopodium album [12]) [%] | weed suppression rate, Monochoria vaginalis (Monochoria vaginalis [13]) [%] | weed suppression rate, Lindemia pyxidaria (Lindernia pyxidaria [14]) [%] | weed suppression rate, Echinochloa crus-galli (Echinochloa crus-galli [15]) [%] | weed suppression rate, Scirpus juncoides (Scirpus juncoides [16]) [%] |
| --- | --- | --- | --- | --- | --- | --- | --- | --- | --- | --- | --- | --- | --- | --- | --- | --- |
| Cc1cc(C)c(S(=O)(=O)n2cnn(C(=O)N(c3ccc(F)c(F)c3F)C(C)C)c2=O)c(C)c1 [Compound 1-899] | 100 | 80 | 100 | 100 | 100 | 100 | 100 | 80 | 80 | 90 | 80 | 60 | 90 | 100 | 100 | 100 |
| Cc1ccc(N(C(=O)n2ncn(S(=O)(=O)C(C)C)c2=O)C(C)C)c(F)c1 [Compound 1-79] | 80 | 80 | 90 | 90 | 90 | 90 | 80 | 80 | 90 | 90 | 80 | 80 | 80 | 80 | 90 | 90 |
| CCC(C)S(=O)(=O)n1cnn(C(=O)N(c2ccc(F)cc2F)C(C)C)c1=O (stereo not drawn) [Compound 1-101] | 80 | 80 | 90 | 90 | 90 | 90 | 80 | 80 | 90 | 90 | 80 | 80 | 80 | 80 | 90 | 90 |
| CC(C)N(C(=O)n1ncn(S(=O)(=O)C2CC2)c1=O)c1ccc(F)cc1 [Compound 1-171] | 90 | 90 | 100 | 90 | 90 | 90 | 80 | 80 | 100 | 90 | 100 | 100 | 100 | 100 | 100 | 100 |
| CC(C)N(C(=O)n1ncn(S(=O)(=O)C2CC2)c1=O)c1ccc(Cl)cn1 [Compound 1-244] | 90 | 100 | 100 | 90 | 90 | 0 | 90 | 40 | 90 | 50 | 80 | 40 | 90 | 100 | 100 | 90 |
| CC(C)N(C(=O)n1ncn(S(=O)(=O)C2CCCCC2)c1=O)c1ccccc1 [Compound 1-295] | 80 | 80 | 90 | 90 | 90 | 90 | 80 | 80 | 90 | 90 | 80 | 80 | 80 | 80 | 90 | 90 |
| CC(C)N(C(=O)n1ncn(S(=O)(=O)N(C)C)c1=O)c1ccc(F)cc1 [Compound 1-1095] | 80 | 80 | 90 | 90 | 90 | 90 | 80 | 80 | 90 | 90 | 80 | 80 | 80 | 80 | 90 | 90 |
| CC(C)N(C(=O)n1ncn(S(=O)(=O)N(C)C)c1=O)c1ccc(F)cc1F [Compound 1-1103] | 80 | 80 | 90 | 90 | 90 | 90 | 80 | 80 | 100 | 60 | 100 | 60 | 80 | 80 | 90 | 90 |
| Cc1nn(C(=O)N(c2ccc(F)cc2F)C(C)C)c(=O)n1S(=O)(=O)C1CC1 [Compound 1-257] | 80 | 80 | 90 | 90 | 90 | 90 | 80 | 80 | 90 | 90 | 80 | 80 | 80 | 80 | 90 | 90 |
